Publication PMC4847174, “C1, a highly potent novel curcumin derivative, binds to tubulin, disrupts microtubule network and induces apoptosis” (Bioscience Reports, 2016)

Tests used:
tubulin [1] = molecular target: T1, tubulin; assay: quenching of intrinsic tryptophan fluorescence; gel filtration co-elution; curcumin displacement; polymerization inhibition; assay type: binding, Capra hircus
T1 construct: tubulin purified from goat brain

tubulin [2] = molecular target: T1, tubulin; assay: quenching of intrinsic tryptophan fluorescence; assay type: binding, Capra hircus

Kd (tubulin [1]) | Kd (tubulin [2]) | Structure (SMILES)
2.8 ± 1 µM |  | COc1cc(/C=C/C(=O)C(=CC2CCN(C(=O)OC(C)(C)C)CC2)C(=O)/C=C/c2ccc(O)c(OC)c2)ccc1O [C1, 4-{5-(4-hydroxy-3-methoxy-phenyl)-2-[3-(4-hydroxy-3-methoxy-phenyl)-acryloyl]-3-oxo-penta-1,4-dienyl}-piperidine-1-carboxylic acid tert-butyl ester]
 | 5.2 ± 0.8 µM | COc1cc(/C=C/C(=O)CC(=O)/C=C/c2ccc(O)c(OC)c2)ccc1O [Curcumin]
